Results reported in PMC8486872, “A rational blueprint for the design of chemically-controlled protein switches” (Nature Communications, 2021).
pIC50: −log10 of the molar value. Several values for one entry are separate records, joined by “and”; a condition that tells them apart may be missing. Equal values may be shown once.

Tests used:
Type in all cases: cell-based
[1] = system: Gal4/UAS SEAP expression in HEK293T cells; assay: Drug specificity of CDH-TFs; settings: Suppl Fig 7b
Experimental: Supplementary Figure 7: Dose-dependence and reversibility characterization of CDHs in CDH-
a) Background signal of SEAP reporter in the absence of the CDH-TF system. HEK239T cells were
(§1) transfected with SEAP reporter S132 and treated with 1 µM Drugs 12 hours post transfection.
(§2) Quantification of SEAP was performed 24 hours after drug treatment. b) Drug specificity of CDH-TFs. […]

[2] = system: SEAP and Luciferase expression in HEK293T cells; assay: MIMO designer cells (AIR-1/2-GEMS + CDH-3-TF); settings: for SEAP: Fig5c, turn ON via AIR-2-GEMS
Description: We first engineered MIMO cells to respond to two drugs with distinct outputs (Fig. 5a) by co-transfecting the CDH-3-TF with either AIR-1-GEMS (Fig. 5b) or AIR-2-GEMS (Fig. 5c).
Fig. 5 Orthogonal chemical switches enable implementation of multi-input multi-output control modes in mammalian cells. a Scheme of multi-inputs multi-outputs (MIMO) designer cells where two drugs control two different outputs. b, c Cells were co-transfected with AIR-1/2-GEMS and CDH-3-TF regulate SEAP and Luciferase expression, respectively. […] AIR-1/2-GEMS coupled with SEAP expression circuits were co-transfected with CDH-1/2-TF circuits which control the Luciferase production. Respective drug concentrations ranged from 0.001 nM to 1 µM. All values presented are mean ± s.d. of three replicates and curves were fitted by four-parameters nonlinear regression. b, c, e, f, h, i Source data are available in the source data file.
Supplementary Figure 13: Orthogonal chemical switches enable implementation of multi-input multi-output control modes in mammalian cells. a) Dual drug toxicity tests in 293T cells. […]
concentrations of 1 nM, 10 nM, 100 nM and 1000 nM each drug in cell culture medium. CCK8 assay was performed 24 hours after drug treatment. Each bar represents the mean of three biological replicates ± s.d, overlaid with a scatter dot plot of the original data points. b-c) Cells were co-transfected with AIR-1-GEMS and CDH-3-TF regulate SEAP and Luciferase expression, respectively. Drug concentrations ranged from 0.001 nM to 1 µM and different combinations were added depending on the protein components, Drug-1 only (b) and Drug-3 only (c). d-e) Cells were co-transfected with AIR-2-GEMS and CDH-3-TF regulate SEAP and Luciferase expression, respectively. Drug concentrations ranged from 0.001 nM to 1 µM and different combinations were added depending on the protein […]
1-TF and CDH-3-TF circuits. Drug-1 concentrations ranged from 0.001 nM to 1 µM (left) and 1 µM Drug-1 with serial diluted Drug-3 from 0.001 nM to 1 µM (right). g) Quantification of SEAP activity controlled by CDH-1-GEMS and CDH-3-GEMS circuits. Drug-1 concentrations ranged from 0.001 nM to 1 µM (left) and Drug-3 dilution along with 1 µM Drug-1 (right). h-i) Quantification of SEAP and Luciferase activities under Drug-1. AIR-1-GEMS coupled with SEAP expression circuits (i) and CDH-1-TF circuits which control the Luciferase production (j). j-k) Quantification of SEAP and Luciferase activities under Drug-2. AIR-2-GEMS coupled with SEAP expression circuits (k) and CDH-2-TF circuits which control the Luciferase production (l). b-k) Each data point represents the mean of n = 3 biological replicates, and the dose-dependent curve were fitted using four-parameter nonlinear regression.

[3] = system: SEAP expression in HEK293T cells; assay: Background signal of SEAP reporter and single-construct controls
Experimental: Supplementary Figure 7: Dose-dependence and reversibility characterization of CDHs in CDH- […]
as §1, §2
Background signal of SEAP reporter in the absence of the CDH-GEMS system. HEK293T cells were transfected with pLS566 SEAP reporter plasmids and treated with drugs. Quantification of SEAP was performed 24 hours post drug treatment. f) SEAP activity upon transfecting single or paired […]
Quantification of SEAP activity of three CDHs with DMSO (dark color), specific (light color) and unspecific drug treatment (gray). […]
(culture medium) in panels of b, c, f and g were collected every 12 hours. Values were normalized to zero based on the SEAP expression at time 0. a, b, e, f, g) The bar charts show the mean ± s.d. of n = 3 biologically independent samples overlaid with a scatter dot plot of the original data points.

[4] = Suppl Fig 7a, TF reporter (S132) only
[5] = Suppl Fig 7e, GEMS reporter (pLS566) only
[6] = Fig5c SEAP via AIR-2-GEMS, four-parameter fit

`CN(C)CC#Cc1ccc(OCCCc2sc(N3CCc4cccc(C(=O)Nc5nc6ccccc6s5)c4C3)nc2C(=O)O)c(F)c1` [Drug-1, A-1155463] was tested, and the “Reporter signal, drug specificity” value ([1]; CDH1) was 10.7853 and 9.721 and 10.2555, the “Reporter signal, drug specificity” value ([1]; CDH3) was 120.91 and 123.106 and 130.139 and the “AIR-1-GEMS controlled SEAP expression” value ([2]; Fig S13b, Drug-1 0.01 nM) was 2.034 U/L and 2.266 U/L and 2.426 U/L. For the same molecule, the “CDH-3-TF controlled Luciferase expression” value ([2]; Fig S13b, Drug-1 0.01 nM) was 63197 RLU and 77075 RLU and 76343 RLU, the “AIR-1-GEMS controlled SEAP expression” value ([2]; Fig S13b, Drug-1 0.1 nM) was 2.577 U/L and 3.504 U/L and 1.937 U/L and the “CDH-3-TF controlled Luciferase expression” value ([2]; Fig S13b, Drug-1 0.1 nM) was 69663 RLU and 84855 RLU and 75827 RLU. The “AIR-1-GEMS controlled SEAP expression” value ([2]; Fig S13b, Drug-1 1 nM) was 2.677 U/L and 2.7744 U/L and 2.999 U/L, the “CDH-3-TF controlled Luciferase expression” value ([2]; Fig S13b, Drug-1 1 nM) was 81097 RLU and 77144 RLU and 82001 RLU and the “AIR-1-GEMS controlled SEAP expression” value ([2]; Fig S13b, Drug-1 3.16 nM) was 4.756 U/L and 3.455 U/L and 4.71 U/L. For the same molecule, the “CDH-3-TF controlled Luciferase expression” value ([2]; Fig S13b, Drug-1 3.16 nM) was 79328 RLU and 72559 RLU and 71332 RLU, the “AIR-1-GEMS controlled SEAP expression” value ([2]; Fig S13b, Drug-1 10 nM) was 14.6262 U/L and 14.8753 U/L and 12.6214 U/L and the “CDH-3-TF controlled Luciferase expression” value ([2]; Fig S13b, Drug-1 10 nM) was 80379 RLU and 81140 RLU and 95805 RLU. For the same molecule, the “AIR-1-GEMS controlled SEAP expression” value ([2]; Fig S13b, Drug-1 31.6 nM) was 24.9389 U/L and 23.1767 U/L and 24.3137 U/L, the “CDH-3-TF controlled Luciferase expression” value ([2]; Fig S13b, Drug-1 31.6 nM) was 89062 RLU and 83795 RLU and 94983 RLU and the “AIR-1-GEMS controlled SEAP expression” value ([2]; Fig S13b, Drug-1 100 nM) was 28.6367 U/L and 35.4252 U/L and 28.7763 U/L. For the same molecule, the “CDH-3-TF controlled Luciferase expression” value ([2]; Fig S13b, Drug-1 100 nM) was 85794 RLU and 82597 RLU and 83527 RLU, the “AIR-1-GEMS controlled SEAP expression” value ([2]; Fig S13b, Drug-1 316 nM) was 33.0089 U/L and 34.8793 U/L and 29.7782 U/L and the “CDH-3-TF controlled Luciferase expression” value ([2]; Fig S13b, Drug-1 316 nM) was 82096 RLU and 72932 RLU and 89789 RLU. The “AIR-1-GEMS controlled SEAP expression” value ([2]; Fig S13b, Drug-1 1000 nM) was 37.3806 U/L and 38.9993 U/L and 31.1376 U/L, the “CDH-3-TF controlled Luciferase expression” value ([2]; Fig S13b, Drug-1 1000 nM) was 73138 RLU and 75381 RLU and 85198 RLU and the Reporter background signal [3, 4] was 2.1563 and 2.182 and 2.388. The Reporter background signal [3, 5] was 2.888 and 3.062 and 3.039.

For `CC1(C)CCC(CN2CCN(c3ccc(C(=O)NS(=O)(=O)c4ccc(NCC5CCOCC5)c([N+](=O)[O-])c4)c(Oc4cnc5[nH]ccc5c4)c3)CC2)=C(c2ccc(Cl)cc2)C1` [Drug-2, Venetoclax], the “Reporter signal, drug specificity” value ([1]; CDH2) was 31.2802 and 28.6812 and 29.088, the “Bottom (best-fit value)” value [2, 6] was 11.58 and the “HillSlope (best-fit value)” value [2, 6] was 0.4637. For the same molecule, the “Span (best-fit value)” value [2, 6] was 174.4, the “Top (best-fit value)” value [2, 6] was 186 and the “logIC50 (best-fit value)” value ([2]; Fig5c SEAP via AIR-2-GEMS, four-parameter fit, drug in nM) was 2.821. The SEAP ([2]; 0.1 nM) was 16.9661 U/L and 14.3649 U/L and 16.0293 U/L, the SEAP ([2]; 0.5 nM) was 32.7217 U/L and 18.5086 U/L and 20.3629 U/L and the SEAP ([2]; 1 nM) was 9.507 U/L and 8.828 U/L and 9.449 U/L. The SEAP ([2]; 5 nM) was 12.4048 U/L and 14.8898 U/L and 15.5553 U/L, the SEAP ([2]; 10 nM) was 53.9453 U/L and 51.1 U/L and 44.2357 U/L and the SEAP ([2]; 50 nM) was 67.8694 U/L and 53.3505 U/L and 65.0318 U/L. The SEAP ([2]; 500 nM) was 99.6195 U/L and 87.3604 U/L and 83.3391 U/L, the SEAP ([2]; 1000 nM) was 116.832 U/L and the “AIR-2-GEMS controlled SEAP expression” value ([2]; Fig S13d, Drug-2 0.01 nM) was 59.8517 U/L and 85.418 U/L and 69.2527 U/L. For the same molecule, the “CDH-3-TF controlled Luciferase expression” value ([2]; Fig S13d, Drug-2 0.01 nM) was 46959 RLU and 46941 RLU and 46901 RLU, the “AIR-2-GEMS controlled SEAP expression” value ([2]; Fig S13d, Drug-2 0.1 nM) was 118.67 U/L and 114.835 U/L and 107.758 U/L and the “CDH-3-TF controlled Luciferase expression” value ([2]; Fig S13d, Drug-2 0.1 nM) was 41162 RLU and 49637 RLU and 46127 RLU. The “AIR-2-GEMS controlled SEAP expression” value ([2]; Fig S13d, Drug-2 1 nM) was 115.899 U/L and 181.597 U/L and 152.021 U/L, the “CDH-3-TF controlled Luciferase expression” value ([2]; Fig S13d, Drug-2 1 nM) was 45977 RLU and 44865 RLU and 47068 RLU and the “AIR-2-GEMS controlled SEAP expression” value ([2]; Fig S13d, Drug-2 3.14 nM) was 134.444 U/L and 173.229 U/L and 165.776 U/L. For the same molecule, the “CDH-3-TF controlled Luciferase expression” value ([2]; Fig S13d, Drug-2 3.14 nM) was 43947 RLU and 39268 RLU and 39254 RLU, the “AIR-2-GEMS controlled SEAP expression” value ([2]; Fig S13d, Drug-2 10 nM) was 190.854 U/L and 240.534 U/L and 260.228 U/L and the “CDH-3-TF controlled Luciferase expression” value ([2]; Fig S13d, Drug-2 10 nM) was 47016 RLU and 49191 RLU and 50470 RLU. The “AIR-2-GEMS controlled SEAP expression” value ([2]; Fig S13d, Drug-2 31.4 nM) was 299.546 U/L and 359.696 U/L and 315.099 U/L, the “CDH-3-TF controlled Luciferase expression” value ([2]; Fig S13d, Drug-2 31.4 nM) was 45761 RLU and 44242 RLU and 45130 RLU and the “AIR-2-GEMS controlled SEAP expression” value ([2]; Fig S13d, Drug-2 100 nM) was 326.848 U/L and 345.031 U/L and 379.553 U/L. The “CDH-3-TF controlled Luciferase expression” value ([2]; Fig S13d, Drug-2 100 nM) was 45390 RLU and 42062 RLU and 45223 RLU, the “AIR-2-GEMS controlled SEAP expression” value ([2]; Fig S13d, Drug-2 314 nM) was 491.977 U/L and 483.914 U/L and 518.642 U/L and the “CDH-3-TF controlled Luciferase expression” value ([2]; Fig S13d, Drug-2 314 nM) was 40043 RLU and 38537 RLU and 34569 RLU. For the same molecule, the “AIR-2-GEMS controlled SEAP expression” value ([2]; Fig S13d, Drug-2 1000 nM) was 386.41 U/L and 334.548 U/L and 408.363 U/L, the “CDH-3-TF controlled Luciferase expression” value ([2]; Fig S13d, Drug-2 1000 nM) was 40262 RLU and 37715 RLU and 45464 RLU and the pIC50 ([2]; Homo sapiens, HEK-293T, Fig5c SEAP turn ON via AIR-2-GEMS, four-parameter fit, given as IC50, read-out: IC50 (best-fit value)) was 6.18. For the same molecule, the Reporter background signal [3, 4] was 2.167 and 2.065 and 2.282 and the Reporter background signal [3, 5] was 2.782 and 3.488 and 3.279.
